Test results from patent US9938281B2 (Merck Sharp & Dohme Corp., priority 2012, dated 2018).

Columns and labels:
PI3K-delta = molecular target: T1, PI3K-delta (Homo sapiens, UniProt O00329); assay: HTRF PI3K biochemical assay, delta isoform; conditions: form screened (neutral or TFA salt) given, read-out: PI3Kdelta IC50
T1 construct: purchased Upstate; Millipore 14-604

PI3K-alpha = molecular target: T2, PI3K-alpha (Homo sapiens, UniProt P42336); assay: HTRF PI3K biochemical assay, alpha isoform; conditions: ratio PI3K-alpha IC50 value / PI3K-delta IC50 value
T2 construct: purchased Upstate; Millipore 14-602
T2 sequence (P42336 whole entry, canonical isoform): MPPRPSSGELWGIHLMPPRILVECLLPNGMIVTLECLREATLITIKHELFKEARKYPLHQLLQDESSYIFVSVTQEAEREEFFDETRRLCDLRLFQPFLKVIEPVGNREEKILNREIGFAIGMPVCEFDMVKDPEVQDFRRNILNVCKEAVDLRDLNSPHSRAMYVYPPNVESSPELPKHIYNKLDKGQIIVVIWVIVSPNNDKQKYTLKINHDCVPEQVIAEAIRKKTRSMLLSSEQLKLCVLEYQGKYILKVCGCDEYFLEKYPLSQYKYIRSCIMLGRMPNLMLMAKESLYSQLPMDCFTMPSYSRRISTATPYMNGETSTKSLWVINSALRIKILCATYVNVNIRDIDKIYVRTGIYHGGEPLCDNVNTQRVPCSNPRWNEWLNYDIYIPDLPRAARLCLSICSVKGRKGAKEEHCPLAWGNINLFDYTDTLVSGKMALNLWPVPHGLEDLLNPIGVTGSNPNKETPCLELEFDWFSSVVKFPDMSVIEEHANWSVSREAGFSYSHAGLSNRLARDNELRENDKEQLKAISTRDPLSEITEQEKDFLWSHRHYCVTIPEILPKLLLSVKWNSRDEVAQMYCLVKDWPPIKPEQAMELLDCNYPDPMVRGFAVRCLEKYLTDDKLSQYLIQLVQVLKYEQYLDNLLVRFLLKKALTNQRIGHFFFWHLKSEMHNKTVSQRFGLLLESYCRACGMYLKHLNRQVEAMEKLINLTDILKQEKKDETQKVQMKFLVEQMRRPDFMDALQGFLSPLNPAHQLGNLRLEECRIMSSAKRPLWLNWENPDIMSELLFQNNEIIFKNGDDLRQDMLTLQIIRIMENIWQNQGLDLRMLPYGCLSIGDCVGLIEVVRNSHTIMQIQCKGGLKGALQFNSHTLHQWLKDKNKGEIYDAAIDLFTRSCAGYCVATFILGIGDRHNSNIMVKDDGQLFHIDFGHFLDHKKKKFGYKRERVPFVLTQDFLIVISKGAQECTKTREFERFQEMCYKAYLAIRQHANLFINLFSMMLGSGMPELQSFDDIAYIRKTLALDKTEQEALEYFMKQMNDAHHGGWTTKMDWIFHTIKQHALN
T2 sequence (P27986 whole entry partner, canonical isoform): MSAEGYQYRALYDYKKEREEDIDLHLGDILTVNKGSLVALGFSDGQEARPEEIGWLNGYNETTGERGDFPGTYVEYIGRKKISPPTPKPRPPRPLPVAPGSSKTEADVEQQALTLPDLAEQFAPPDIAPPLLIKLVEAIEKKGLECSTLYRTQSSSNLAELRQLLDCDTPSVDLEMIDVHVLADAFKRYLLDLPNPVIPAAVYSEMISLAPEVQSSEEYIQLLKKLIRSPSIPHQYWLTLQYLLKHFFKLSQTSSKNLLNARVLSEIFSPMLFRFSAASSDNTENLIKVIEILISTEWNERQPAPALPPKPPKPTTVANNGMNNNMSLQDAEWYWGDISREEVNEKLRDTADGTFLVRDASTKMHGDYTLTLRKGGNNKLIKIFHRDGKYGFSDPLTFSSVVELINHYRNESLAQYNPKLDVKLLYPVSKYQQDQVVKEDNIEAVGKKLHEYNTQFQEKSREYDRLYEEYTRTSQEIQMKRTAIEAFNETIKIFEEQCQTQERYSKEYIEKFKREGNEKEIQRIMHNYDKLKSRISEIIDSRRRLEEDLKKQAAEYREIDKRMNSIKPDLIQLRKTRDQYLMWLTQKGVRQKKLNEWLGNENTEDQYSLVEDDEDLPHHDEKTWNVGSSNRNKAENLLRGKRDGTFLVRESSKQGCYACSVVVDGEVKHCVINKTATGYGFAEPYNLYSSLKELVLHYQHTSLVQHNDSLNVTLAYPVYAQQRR
Excerpt: The PI3-Kinase biochemical assays were developed to measure the intrinsic potency and compound dependent inhibition of the alpha, beta, delta, and gamma PI3K isoform enzymes. This assay was developed and further optimized from a kit produced by Upstate (Millipore catalog #33-047) and has been configured for HTS and SAR screening. Briefly, this procedure exploits the exquisite specificity and high affinity binding of enzyme reaction substrate phosphatidyl(3,4,5)triphosphate (PIP3) to the GRP1 pleckstrin homology (PH) domain to generate the signal. In the absence of PIP3, an HTRF (Homogeneous Time-Resolved Fluorescence energy transfer) complex is formed consisting of europium (Eu)-labeled anti-GST, GSTtagged GRP1-PH domain, biotin-PIP3 and streptavidin conjugated APC. The native PIP3 produced by PI3-Kinase activity disrupts in a competitive manner the biotin-PIP3 from the PH domain, resulting in the loss of energy transfer (HTRF complex) and a decrease in the signal. The format of this assay is the same for all 4 isoforms of PI3K; the differences lie in the concentration of enzyme used to achieve robust assay window. The alpha, beta, and delta assays are run at 0.5, 1, and 0.3 nM enzymes and the gamma assay is run at 5 nM enzyme. The ATP concentration is 100 uM in the alpha, beta, and delta assays and 50 uM ATP in the gamma assay. All reactions are run at 5 uM PIP2.
Compounds are serially diluted (3-fold in 100% DMSO) across a 384-well polypropylene source plated from column 3 to column 12 and column 13 to column 22, to yield 10 concentration dose response for each test compound. Columns 1, 2, 23 and 24 contain either only DMSO or pharmacological known control inhibitor.
The PI3-Kinase biochemical assay was optimized using the HTRF kit provided by Upstate (Millipore). The assay kit contains six reagents: 1) 4× Reaction Buffer; 2) native PIP2 (substrate); 3) Stop (EDTA); 4) Detection Mix A (Streptavidin-APC); 5) Detection Mix B (Eu-labeled Anti-GST plus GST-tagged PH-domain); 6) Detection Mix C.
PI3Kinase Reaction Buffer is prepared by dilution the stock 1:4 with de-ionized water. […] Enzyme addition and compound pre-incubation are initiated by the addition of 1.25 ul of PI3K (at twice its final concentration) in the 1× reaction buffer to all wells using a BioRaptor. Plates are incubated at room temperature for 15 minutes. Reactions are initiated by addition of 1.25 ul of 2× substrate solution (PIP2 and ATP in 1× reaction buffer) using BioRaptor. Plates are incubated in humidified chamber at room temperature for one hour. Reactions are quenched by addition of 0.625 uL of stop solution to all wells using the BioRaptor. The quenched reactions are then processed to detect product formation by adding 0.625 uL of Detection Solution to all wells using the BioRaptor (Detection mix C, Detection Mix A, and Detection Mix B combined together in an 18:1:1 ratio prepared 2 hours prior to use).
The loss of the HTRF signal is due to the displacement of biotinylated-PIP3 from the PH domain by the PI3K-dependent conversion of PIP2 to PIP3. This loss of signal is nonlinear with respect to both increasing product and time. This non-linear detection will impact accuracy of IC50 calculations; therefore, there is a need for a correction factor to obtain more accurate IC50 values. This correction is derived from a PIP3 standard curve run in a separate assay plate. All data were calculated using the ratio of acceptor (APC) to donor (Europium) fluorescence in each well of the assay plate. […] An IC50 was then calculated fitting the % inhibition data to the equation: % inhibition=min+(Max−min)/1+([inhibitor]/IC50)^n) where min is the % inhibition with inhibitor, max is the signal in DMSO control, and n is the Hill slope.
The determination of relative selectivity for a given compound is defined as the relative ratio of the (PI3K-alphalC50 value/PI3K-delta IC50 value).

T1 sequence (O00329 whole entry, canonical isoform): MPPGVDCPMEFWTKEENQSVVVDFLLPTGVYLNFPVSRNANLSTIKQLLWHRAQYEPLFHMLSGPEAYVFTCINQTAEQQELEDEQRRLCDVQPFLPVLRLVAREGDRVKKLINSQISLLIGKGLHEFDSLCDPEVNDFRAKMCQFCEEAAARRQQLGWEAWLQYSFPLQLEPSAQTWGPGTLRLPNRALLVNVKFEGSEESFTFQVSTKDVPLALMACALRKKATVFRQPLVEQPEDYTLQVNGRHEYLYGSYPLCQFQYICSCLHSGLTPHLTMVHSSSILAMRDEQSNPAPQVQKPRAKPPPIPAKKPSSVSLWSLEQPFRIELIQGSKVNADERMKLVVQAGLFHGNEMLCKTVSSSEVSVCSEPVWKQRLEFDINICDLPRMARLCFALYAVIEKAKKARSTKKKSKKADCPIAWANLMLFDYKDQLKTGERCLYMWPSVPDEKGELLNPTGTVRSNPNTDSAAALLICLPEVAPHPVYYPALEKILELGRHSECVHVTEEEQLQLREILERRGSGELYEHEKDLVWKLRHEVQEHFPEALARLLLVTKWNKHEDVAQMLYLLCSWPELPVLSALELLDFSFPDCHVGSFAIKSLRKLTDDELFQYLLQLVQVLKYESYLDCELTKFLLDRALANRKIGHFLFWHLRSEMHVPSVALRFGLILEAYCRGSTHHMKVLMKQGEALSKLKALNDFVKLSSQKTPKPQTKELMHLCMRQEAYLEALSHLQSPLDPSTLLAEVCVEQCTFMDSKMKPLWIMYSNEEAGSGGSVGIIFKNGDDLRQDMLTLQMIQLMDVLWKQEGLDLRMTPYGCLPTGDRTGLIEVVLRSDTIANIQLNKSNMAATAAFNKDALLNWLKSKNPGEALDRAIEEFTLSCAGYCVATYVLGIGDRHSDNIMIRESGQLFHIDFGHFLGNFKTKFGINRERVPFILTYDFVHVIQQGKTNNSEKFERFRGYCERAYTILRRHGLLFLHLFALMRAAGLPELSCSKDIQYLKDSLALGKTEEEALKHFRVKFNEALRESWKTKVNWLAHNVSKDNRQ
T1 sequence (P27986 whole entry partner, canonical isoform): as the sequence (P27986 whole entry partner, canonical isoform) above

Compound	IC50 (PI3K-delta)	Selectivity versus PI3Kalpha (PI3K-alpha)
CCC(=O)N1CC[C@H](Nc2ncnc3c2nc(-c2cnc(OC)c(C(F)(F)F)c2)n3C)C1 [Compound 3-7, (S)-1-(3-((8-(6-methoxy-5-(trifluoromethyl)pyridin-3-yl)-9-methyl-9H-purin-6-yl)amino)pyrrolidin-1-yl)propan-1-one]	2.2 nM	>10
CCC(=O)N1CC[C@H](Nc2ncnc3c2nc(-c2cnn(-c4ccccc4)c2C)n3C)C1 [Compound 3-11, 9-methyl-8-(5-methyl-1-phenyl-1H-pyrazol-4-yl)-N-[(3S)-1-propanoylpyrrolidin-3-yl]-9H-purin-6-amine]	< 1 nM	>10
CCC(=O)N1CC[C@H](Nc2ncnc3c2nc(-c2ncn(CC)c2C)n3C)C1 [Compound 3-12, 8-(1-ethyl-5-methyl-1H-imidazol-4-yl)-9-methyl-N-[(3S)-1-propanoylpyrrolidin-3-yl]-9H-purin-6-amine]	690 nM	>10
CCC(=O)N1CC[C@H](Nc2ncnc3c2nc(-c2cnc(C)nc2)n3C)C1 [Compound 3-15, 9-methyl-8-(2-methylpyrimidin-5-yl)-N-[(3S)-1-propanoylpyrrolidin-3-yl]-9H-purin-6-amine]	4.3 nM	>10
Cc1ncc(-c2nc3c(N[C@H]4CCN(C(=O)C5CC5)C4)ncnc3n2C)cn1 [Compound 3-23, N-[(3S)-1-(cyclopropylcarbonyl)pyrrolidin-3-yl]-9-methyl-8-(2-methylpyrimidin-5-yl)-9H-purin-6-amine]	5.4 nM	>10
CCn1c(-c2cnc3[nH]ccc3c2)nc2c(N[C@H]3CCN(C(=O)C4CC4)C3)ncnc21 [Compound 3-24, N-[(3S)-1-(cyclopropylcarbonyl)pyrrolidin-3-yl]-9-ethyl-8-(1H-pyrrolo[2,3-b]pyridin-5-yl)-9H-purin-6-amine]	< 1 nM	>10
CCn1c(-c2cnc(OC)c(Cl)c2)nc2c(N[C@H]3CCN(C(=O)C4CC4)C3)ncnc21 [Compound 3-25, 8-(5-chloro-6-methoxypyridin-3-yl)-N-[(3S)-1-(cyclopropylcarbonyl)pyrrolidin-3-yl]-9-ethyl-9H-purin-6-amine]	< 1 nM	>10
CCN(c1ncnc2c1nc(-c1cnc(C)nc1)n2CC)[C@H]1CCN(C(=O)C2CC2)C1 [Compound 3-28, N-[(3S)-1-(cyclopropylcarbonyl)pyrrolidin-3-yl]-N,9-diethyl-8-(2-methylpyrimidin-5-yl)-9H-purin-6-amine]	6.7 nM	>10
CCn1c(-c2cnc(C)nc2)nc2c(N(C)[C@H]3CCN(C(=O)C4CC4)C3)ncnc21 [Compound 3-29, N-[(3S)-1-(cyclopropylcarbonyl)pyrrolidin-3-yl]-9-ethyl-N-methyl-8-(2-methylpyrimidin-5-yl)-9H-purin-6-amine]	40 nM	>10
CCn1c(-c2ccc(C(F)(F)F)cc2)nc2c(N[C@H]3CCN(C(=O)C4CC4)C3)ncnc21 [Compound 3-30, N-[(3S)-1-(cyclopropylcarbonyl)pyrrolidin-3-yl]-9-ethyl-8-[4-(trifluoromethyl)phenyl]-9H-purin-6-amine]	1.2 nM	>10
CCC(=O)N1CC[C@H](Nc2ncnc3c2nc(-c2cnc(OC)c(C#N)c2)n3C)C1 [Compound 3-33, 2-methoxy-5-(9-methyl-6-{[(3S)-1-propanoylpyrrolidin-3-yl]amino}-9H-purin-8-yl)pyridine-3-carbonitrile]	2.3 nM	>10
CCC(=O)N1CC[C@H](Nc2ncnc3c2nc(-c2cncc(C(C)(C)O)c2)n3C)C1 [Compound 3-34, 2-[5-(9-methyl-6-{[(3S)-1-propanoylpyrrolidin-3-yl]amino}-9H-purin-8-yl)pyridin-3-yl]propan-2-ol]	2 nM	>10
CCn1c(-c2cnc3c(cnn3C)c2)nc2c(N[C@H]3CCN(C(=O)C4CC4)C3)ncnc21 [Compound 3-35, N-[(3S)-1-(cyclopropylcarbonyl)pyrrolidin-3-yl]-9-ethyl-8-(1-methyl-1H-pyrazolo[3,4-b]pyridin-5-yl)-9H-purin-6-amine]	< 1 nM	>10
CCn1c(-c2cnn(CC(F)(F)F)c2)nc2c(N[C@H]3CCN(C(=O)C4CC4)C3)ncnc21 [Compound 3-36, N-[(3S)-1-(cyclopropylcarbonyl)pyrrolidin-3-yl]-9-ethyl-8-[1-(2,2,2-trifluoroethyl)-1H-pyrazol-4-yl]-9H-purin-6-amine]	1.2 nM	>10
CCn1c(-c2cncc(-c3ccccc3)c2)nc2c(N[C@H]3CCN(C(=O)C4CC4)C3)ncnc21 [Compound 3-37, N-[(3S)-1-(cyclopropylcarbonyl)pyrrolidin-3-yl]-9-ethyl-8-(5-phenylpyridin-3-yl)-9H-purin-6-amine]	5.4 nM	>10

The remaining lines, values ahead:

IC50 (PI3K-delta)	Selectivity versus PI3Kalpha (PI3K-alpha)	Compound
14 nM	>10	CCC(=O)N1CC[C@H](Nc2ncnc3c2nc(-c2ccc4[nH]ccc4c2)n3C)C1 [Compound 3-8, (S)-1-(3-((8-(1H-indol-5-yl)-9-methyl-9H-purin-6-yl)amino)pyrrolidin-1-yl)propan-1-one]
1.3 nM	>10	CCC(=O)N1CC[C@H](Nc2ncnc3c2nc(-c2cc(O)cc(F)c2)n3C)C1 [Compound 3-9, 3-fluoro-5-(9-methyl-6-{[(3S)-1-propanoylpyrrolidin-3-yl]amino}-9H-purin-8-yl)phenol]
1.8 nM	>10	CCC(=O)N1CC[C@H](Nc2ncnc3c2nc(-c2ccc(OC)c(F)c2)n3C)C1 [Compound 3-10, 8-(3-fluoro-4-methoxyphenyl)-9-methyl-N-[(3S)-1-propanoylpyrrolidin-3-yl]-9H-purin-6-amine]
2.4 nM	>10	CCC(=O)N1CC[C@H](Nc2ncnc3c2nc(-c2cncc(N)c2)n3C)C1 [Compound 3-13, 8-(5-aminopyridin-3-yl)-9-methyl-N-[(3S)-1-propanoylpyrrolidin-3-yl]-9H-purin-6-amine]
2.1 nM	>10	CCC(=O)N1CC[C@H](Nc2ncnc3c2nc(-c2ccc(Cl)nc2)n3C)C1 [Compound 3-14, 8-(6-chloropyridin-3-yl)-9-methyl-N-[(3S)-1-propanoylpyrrolidin-3-yl]-9H-purin-6-amine]
39 nM	>10	CCC(=O)N1CC[C@H](Nc2ncnc3c2nc(-c2ccc(S(C)(=O)=O)cc2)n3C)C1 [Compound 3-27, 9-methyl-8-[4-(methylsulfonyl)phenyl]-N-[(3S)-1-propanoylpyrrolidin-3-yl]-9H-purin-6-amine]
4 nM	>10	CCC(=O)N1CC[C@H](Nc2ncnc3c2nc(-c2ccc(OC)nc2)n3C)C1 [Compound 3-31, 8-(6-methoxypyridin-3-yl)-9-methyl-N-[(3S)-1-propanoylpyrrolidin-3-yl]-9H-purin-6-amine]
1.9 nM	>10	CCC(=O)N1CC[C@H](Nc2ncnc3c2nc(-c2ccc(OC)c(C)c2)n3C)C1 [Compound 3-32, 8-(4-methoxy-3-methylphenyl)-9-methyl-N-[(3S)-1-propanoylpyrrolidin-3-yl]-9H-purin-6-amine]
